Consider eight molecules from patent US11498920B2, “4-(1H-imidazol-5-yl)-1H-pyrrolo[2, 3-b] pyridines for use in the treatment of leukaemias, lymphomas and solid tumors” (MASARYKOVA UNIVERZITA, priority 2018, dated 2022).

Broadly, the viability is a per cent measure of how many cells are alive, often set against a control.

What all share (assay type): cell-based
One assay deals with primary CLL cells. In words: Cytotoxicity, TMRE flow cytometry viability, primary CLL cells (Example II.1). As to conditions: Homo sapiens, CLL cell, 6 hours, TMRE positive cells normalized to control, ratio to PF670462, <1 = higher cytotoxicity than PF670462, read-out: Viability of cells, Compound of formula I (100 μM), relative to PF670462 (100 μM), CLL primary cells.
Assay [1] has as its system Maver-1 cells (mantle cell lymphoma). Nature of the assay: Cytotoxicity, TMRE flow cytometry viability, Maver-1 cells (Example II.1). As to conditions: Homo sapiens, Maver1, 24 hours, TMRE positive cells normalized to control, ratio to PF670462, <1 = higher cytotoxicity than PF670462, read-out: Viability of cells, Compound of formula I (100 μM), relative to PF670462 (100 μM), Maver-1 cells (mantle cell lymphoma).

Another assay deals with Maver1. Nature of the assay: Cytotoxicity on panel of cell lines, TMRE viability (Example II.2). Conditions: Homo sapiens, 24 hours, mean, control = 1, read-out: cell viability relative to control, Maver1 (MCL). On the procedure:
(§1) The leukemia and lymphoma-derived cell lines [MEC-1 cell line (derived from chronic lymphocytic leukemia—CLL), Nalm-16 (acute lymphocytic leukemia—ALL), K562 (chronic myeloid leukemia—CML), HL-60 (acute myeloid leukemia—AML), Maver-1 and Mino (mantle cell lymphoma—MCL), BL-41 (Burkitt lymphoma—BL), WSU-NHL (follicular lymphoma—FL), SUDHL (diffuse large B-cell lymphoma—DLBCL)], primary CLL cells and nonmalignant control primary cells were cultured in suspension in flasks under the following conditions: RPMI 1640 medium (Hyclone) supplemented with 10% fetal bovine serum (FBS, Gibco) and 1% penicillin/streptomycin (Life Technologies), 37° C., 5% CO2 and 95% relative humidity, with optimal culture cell density 5×10^6 cells/mL in case of primary cells and 0.5-1×10^6 cells/mL in case of cell lines. The adherent cell lines [A375 (derived from malignant melanoma), MDA-MB-231 and MCF-7 (breast cancer), MIA-PA-CA and PANC1 (pancreatic cancer), PC3 (prostate cancer), OVCAR4 (ovarian cancer) and HEPG2 (hepatocellular carcinoma)] were cultured on plates under the same conditions using RPMI1640 or DMEM medium (Gibco) according to instructions provided by the distributor (DSMZ/ATCC).
(§2) The tested cell lines were incubated with inhibitors at 30 μM concentration or corresponding amount of solvent (DMSO, Sigma Aldrich) in standard culture conditions, seeded as 10^5 cells/500 μl per well in a 24-well plate. Experiments were performed in technical duplicates and 2-3 biological repetitions per cell line. Viability of cells was assessed after 24 hours.
(§3) Relative values are presented as a mean value, showing ratio to the effect of control. Relative value <1=lower viability than control condition.

For a further assay, the system named is BL-41. The description is as above. As to conditions: Homo sapiens, 24 hours, mean, control = 1, read-out: cell viability relative to control, BL-41 (BL). The protocol: as §1, §2, §3
The subject of the next assay is MCF-7. The description is as above. Conditions: Homo sapiens, MCF7, 24 hours, mean, control = 1, read-out: cell viability relative to control, MCF-7 (breast cancer). On the procedure:
as §1, §2, §3

In a further assay the test system is SUDHL. The description is as above. Conditions: 24 hours, mean, control = 1, read-out: cell viability relative to control, SUDHL (DLBCL). The protocol:
as §1, §2, §3

A further assay relates to Nalm16. Described as above. Conditions: 24 hours, mean, control = 1, read-out: cell viability relative to control, Nalm16 (ALL). The protocol:
as §1, §2, §3

A further assay concerns MEC-1. The assay is described as above. As to conditions: Homo sapiens, MEC1, 24 hours, mean, control = 1, read-out: cell viability relative to control, MEC-1 (CLL). On the procedure:
as §1, §2, §3

The next assay has as its system primary CLL. Described as above. As to conditions: Homo sapiens, 24 hours, mean, control = 1, read-out: cell viability relative to control, primary CLL. The protocol: as §1, §2, §3
The next assay concerns Mino. The description is as above. As to conditions: Homo sapiens, 24 hours, mean, control = 1, read-out: cell viability relative to control, Mino (MCL). The protocol: as §1, §2, §3
In another assay the test system is PANC1. Described as above. As to conditions: Homo sapiens, PANC-1, 24 hours, mean, control = 1, read-out: cell viability relative to control, PANC1 (pancreatic cancer). On the procedure: as §1, §2, §3
Another assay concerns OVCAR4. Described as above. As to conditions: Homo sapiens, OVCAR-4, 24 hours, mean, control = 1, read-out: cell viability relative to control, OVCAR4 (ovarian cancer). The protocol:
as §1, §2, §3

In a further assay the test system is WSU-NHL. The assay is described as above. Conditions: Homo sapiens, 24 hours, mean, control = 1, read-out: cell viability relative to control, WSU-NHL (FL). On the procedure: as §1, §2, §3
In a further assay the test system is A375. The description is as above. As to conditions: Homo sapiens, A-375, 24 hours, mean, control = 1, read-out: cell viability relative to control, A375 (melanoma). The protocol: as §1, §2, §3
The next assay concerns MIA-PA-CA. The description is as above. As to conditions: Homo sapiens, MIA PaCa-2, 24 hours, mean, control = 1, read-out: cell viability relative to control, MIA-PA-CA (pancreatic cancer). The protocol: as §1, §2, §3
The next assay relates to HEPG2. Described as above. As to conditions: Homo sapiens, 24 hours, mean, control = 1, read-out: cell viability relative to control, HEPG2 (hepatocellular carcinoma). The protocol:
as §1, §2, §3

In another assay the test system is MDA-MB-231. The description is as above. As to conditions: Homo sapiens, 24 hours, mean, control = 1, read-out: cell viability relative to control, MDA-MB-231 (breast cancer). On the procedure: as §1, §2, §3
In the next assay the test system is HL60. The description is as above. Conditions: Homo sapiens, HL-60, 24 hours, mean, control = 1, read-out: cell viability relative to control, HL60 (AML). On the procedure: as §1, §2, §3
For another assay, the system named is PC3. Described as above. Conditions: Homo sapiens, PC-3, 24 hours, mean, control = 1, read-out: cell viability relative to control, PC3 (prostate cancer). The protocol:
as §1, §2, §3

On to `Fc1ccc(-c2ncn(Cc3ccoc3)c2-c2ccnc3[nH]ccc23)cc1` [Preparative Example 23], for which the viability at 100 µM was 37% with primary CLL cells and 46% in assay [1]. Also, the viability at 30 µM came out at 71% in the assay on Maver1; 57% with BL-41; 31% in the assay with MCF-7; 67% in the assay on SUDHL; 20% in the assay with Nalm16; 84% with MEC-1. Moreover, the results for the viability at 30 µM with primary CLL and with Mino were 68% and 65%, respectively.

As to `Fc1ccc(-c2ncn(C3CCNCC3)c2-c2ccnc3[nH]ccc23)cc1` [Preparative Example 37, 4-(4-(4-fluorophenyl)-1-(piperidin-4-yl)-1H-imidazol-5-yl)-1H-pyrrolo[2,3-b]pyridine], the viability at 100 µM with primary CLL cells amounted to 51%. Moreover, the viability at 30 µM in the assay with BL-41 was found to be 75%; in the assay on SUDHL, 89%; in the assay on Nalm16 it was 50%; in the assay on PANC1, 67%; in the assay on primary CLL, 39%; in the assay on OVCAR4, 82%.

`Fc1ccc(-c2ncn(-c3ccccc3)c2-c2ccnc3[nH]ccc23)cc1` [Preparative Example 47]: the viability at 100 µM in the assay with primary CLL cells was 78%. For the same molecule, the viability at 30 µM in the assay on BL-41 came to 73%; in the assay with Nalm16 it was 57%; in the assay on PANC1, 83%; in the assay on primary CLL, 81%; in the assay with OVCAR4, 76%.

As for `c1cc(-c2c(C3CCCCC3)ncn2C2CCCCC2)c2cc[nH]c2n1` [Preparative Example 67, 4-(1,4-dicyclohexyl-1H-imidazol-5-yl)-1H-pyrrolo[2,3-b]pyridine], the values for the viability at 100 µM (in the assay with primary CLL cells; in assay [1]) were 66% and 71%, respectively. Also, the viability at 30 µM in the assay on Maver1 was 73%; in the assay with BL-41 it was 76%; with WSU-NHL, 84%; in the assay on A375 it was 55%; in the assay on Nalm16, 40%; in the assay on Mino it was 72%.

As to `C=CS(=O)(=O)N[C@H]1CC[C@@H](n2cnc(-c3ccc(F)cc3)c2-c2ccnc3[nH]ccc23)CC1` [Preparative Example 97], the values for the viability at 100 µM (with primary CLL cells; in assay [1]) were 18% and 1%, respectively. Further, the viability at 30 µM was found to be 1% in the assay with Maver1; 11% with BL-41; 28% with MCF-7; 23% in the assay with MIA-PA-CA; 39% with HEPG2; 68% with SUDHL. Moreover, the viability at 30 µM in the assay on WSU-NHL came to 2%; with A375, 17%; in the assay with MDA-MB-231, 53%; with HL60, 68%; in the assay on PANC1, 50%; in the assay with MEC-1, 1%. For the same molecule, the viability at 30 µM with primary CLL worked out at 51%; with Mino, 0%; in the assay with PC3, 74%; in the assay on OVCAR4 it was 78%.

`Fc1ccc(-c2ncn(Cc3ccccc3)c2-c2ccnc3[nH]ccc23)cc1Cl` [Preparative Example 140, 4-(1-benzyl-4-(3-chloro-4-fluorophenyl)-1H-imidazol-5-yl)-1H-pyrrolo[2,3-b]pyridine]: the viability at 100 µM with primary CLL cells was found to be 1%; in [1], 0%. For the same molecule, the viability at 30 µM was 7% in the assay with Maver1; 44% with BL-41; 43% in the assay with MCF-7; 29% in the assay on MIA-PA-CA; 22% in the assay with HEPG2; 11% in the assay with SUDHL. Also, the viability at 30 µM turned out to be 56% with WSU-NHL; 80% in the assay on A375; 86% in the assay with MDA-MB-231; 78% in the assay on HL60; 77% with PANC1; 67% in the assay on MEC-1. The viability at 30 µM with primary CLL was 60%; in the assay on Mino, 3%; in the assay on PC3, 67%; in the assay on OVCAR4, 87%.

For the molecule `Fc1ccc(-c2ncn(C3CCCCC3)c2-c2c(F)cnc3[nH]ccc23)cc1` [Preparative Example 147, 4-(1-cyclohexyl-4-(4-fluorophenyl)-1H-imidazol-5-yl)-5-fluoro-1H-pyrrolo[2,3-b]pyridine], the viability at 100 µM in the assay with primary CLL cells was found to be 8%; in [1], 3%. In addition, the viability at 30 µM in the assay with Maver1 is 0%; in the assay on BL-41, 21%; in the assay with MCF-7 it was 41%; with MIA-PA-CA, 45%; in the assay on HEPG2 it was 41%; with SUDHL it was 1%. Moreover, the viability at 30 µM in the assay with WSU-NHL came to 38%; with A375, 85%; in the assay with HL60, 84%; in the assay with PANC1, 67%; in the assay on MEC-1, 38%; in the assay on primary CLL, 37%. The viability at 30 µM with Mino worked out at 1%; with PC3, 57%; in the assay with OVCAR4, 69%.

Regarding `Fc1ccc(-c2ncn(C3CCCCC3)c2-c2ccnc3[nH]cc(F)c23)cc1` [Preparative Example 149, 4-(1-cyclohexyl-4-(4-fluorophenyl)-1H-imidazol-5-yl)-3-fluoro-1H-pyrrolo[2,3-b]pyridine], the viability at 100 µM with primary CLL cells was determined as 11%; in assay [1], 0%. Also, the viability at 30 µM with Maver1 amounted to 1%; in the assay on BL-41, 22%; in the assay on MCF-7, 65%; with MIA-PA-CA, 87%; in the assay with HEPG2, 77%; with SUDHL, 21%. Further, the viability at 30 µM with WSU-NHL turned out to be 26%; in the assay on HL60, 79%; with MEC-1, 33%; in the assay on primary CLL, 68%; in the assay on Mino it was 1%; with PC3, 86%.
